According to patent US9346815B2, “5-chloro-2-difluoromethoxyphenyl pyrazolopyrimidine compounds, compositions and methods of use thereof” (Genentech, Inc., priority 2014, dated 2016):
Where a name gives a salt, the structure may show the parent alone.

Experiments:
[1] = system: JAK1-dependent STAT6 phosphorylation downstream of IL-13 stimulation in TF-1 human erythroleukemia cells; assay: JAK1 pathway assay in TF-1 cells (IL-13-pSTAT6, MSD); assay type: cell-based; conditions: Homo sapiens, TF-1, TF-1 cells, read-out: IL13-pSTAT6 EC50_TF-1
In short: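 BEAS-2B: complete growth medium, compound 1 hr at 37° C. TF-1: GM-CSF-starved overnight, serum-free OptiMEM, compound 30 min.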

[2] = molecular target: isolated recombinant JAK2 kinase domain (Homo sapiens (Human), UniProt O60674); assay: JAK2 enzyme assay (Caliper LabChip, peptide phosphorylation); assay type: biochemical; conditions: 25 μM ATP
Sequence of isolated recombinant JAK2 kinase domain (O60674 849-1124): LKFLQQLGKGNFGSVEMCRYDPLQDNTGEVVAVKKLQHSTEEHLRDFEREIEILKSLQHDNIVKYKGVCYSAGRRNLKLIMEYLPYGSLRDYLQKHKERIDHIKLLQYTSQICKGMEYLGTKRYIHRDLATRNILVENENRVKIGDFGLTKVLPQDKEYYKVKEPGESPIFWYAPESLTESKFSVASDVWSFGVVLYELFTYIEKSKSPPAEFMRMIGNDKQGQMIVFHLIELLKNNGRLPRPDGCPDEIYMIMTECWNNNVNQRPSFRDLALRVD

[3] = molecular target: isolated recombinant JAK1 kinase domain (Homo sapiens (Human), UniProt P23458); assay: JAK1 enzyme assay (Caliper LabChip, peptide phosphorylation); assay type: biochemical; conditions: isolated recombinant JAK1 kinase domain, 25 μM ATP
Sequence of isolated recombinant JAK1 kinase domain (P23458 875-1153): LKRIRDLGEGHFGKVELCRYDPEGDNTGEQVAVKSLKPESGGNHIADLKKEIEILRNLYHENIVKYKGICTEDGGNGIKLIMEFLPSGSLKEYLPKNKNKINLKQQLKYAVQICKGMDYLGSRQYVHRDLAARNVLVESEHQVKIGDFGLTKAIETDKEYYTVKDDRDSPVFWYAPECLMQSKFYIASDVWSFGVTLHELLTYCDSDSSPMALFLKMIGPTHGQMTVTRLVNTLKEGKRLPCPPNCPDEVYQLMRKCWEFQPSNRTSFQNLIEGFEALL

SMILES | EC50 [1] [nM] | Ki [2] [nM] | Ki [3] [nM]
CN(Cc1ccc(Br)cc1)C1CCN(C(=O)Cn2cc(NC(=O)c3cnn4cccnc34)c(-c3cc(Cl)ccc3OC(F)F)n2)CC1 [Example 119, N-[1-[2-[4-[(4-bromophenyl)methyl-methyl-amino]-1-piperidyl]-2-oxo-ethyl]-3-[5-chloro-2-(difluoromethoxy)phenyl]pyrazol-4-yl]pyrazolo[1,5-a]pyrimidine-3-carboxamide] | 20.8 | 0.51 | 1.21
CN(Cc1ccc(C(C)(C)C)cc1)C1CCN(C(=O)Cn2cc(NC(=O)c3cnn4cccnc34)c(-c3cc(Cl)ccc3OC(F)F)n2)CC1 [Example 120, N-[1-[2-[4-[(4-tert-butylphenyl)methyl-methyl-amino]-1-piperidyl]-2-oxo-ethyl]-3-[5-chloro-2-(difluoromethoxy)phenyl]pyrazol-4-yl]pyrazolo[1,5-a]pyrimidine-3-carboxamide] | 118 | 0.23 | 0.3
CN(Cc1ccc(Cl)c(Cl)c1)C1CCN(C(=O)Cn2cc(NC(=O)c3cnn4cccnc34)c(-c3cc(Cl)ccc3OC(F)F)n2)CC1 [Example 121, N-[3-[5-chloro-2-(difluoromethoxy)phenyl]-1-[2-[4-[(3,4-dichlorophenyl)methyl-methyl-amino]-1-piperidyl]-2-oxo-ethyl]pyrazol-4-yl]pyrazolo[1,5-a]pyrimidine-3-carboxamide] | 140 | 0.31 | 0.24
CN(Cc1cccc(Br)c1)C1CCN(C(=O)Cn2cc(NC(=O)c3cnn4cccnc34)c(-c3cc(Cl)ccc3OC(F)F)n2)CC1 [Example 122, N-[1-[2-[4-[(3-bromophenyl)methyl-methyl-amino]-1-piperidyl]-2-oxo-ethyl]-3-[5-chloro-2-(difluoromethoxy)phenyl]pyrazol-4-yl]pyrazolo[1,5-a]pyrimidine-3-carboxamide] | 24.9 | 0.17 | 0.27
CC(C)Oc1ccc(CN(C)C2CCN(C(=O)Cn3cc(NC(=O)c4cnn5cccnc45)c(-c4cc(Cl)ccc4OC(F)F)n3)CC2)cc1 [Example 125, N-[3-[5-chloro-2-(difluoromethoxy)phenyl]-1-[2-[4-[(4-isopropoxyphenyl)methyl-methyl-amino]-1-piperidyl]-2-oxo-ethyl]pyrazol-4-yl]pyrazolo[1,5-a]pyrimidine-3-carboxamide] | 11.7 | 2.2 | 0.61
CN(Cc1ccc(Cl)cc1)C1CCN(C(=O)Cn2cc(NC(=O)c3cnn4cccnc34)c(-c3cc(Cl)ccc3OC(F)F)n2)CC1 [Example 126, N-[3-[5-chloro-2-(difluoromethoxy)phenyl]-1-[2-[4-[(4-chlorophenyl)methyl-methyl-amino]-1-piperidyl]-2-oxo-ethyl]pyrazol-4-yl]pyrazolo[1,5-a]pyrimidine-3-carboxamide] | 14.9 | 1.8 | 0.63
CCCCOc1ccc(CN(C)C2CCN(C(=O)Cn3cc(NC(=O)c4cnn5cccnc45)c(-c4cc(Cl)ccc4OC(F)F)n3)CC2)cc1 [Example 127, N-[1-[2-[4-[(4-butoxyphenyl)methyl-methyl-amino]-1-piperidyl]-2-oxo-ethyl]-3-[5-chloro-2-(difluoromethoxy)phenyl]pyrazol-4-yl]pyrazolo[1,5-a]pyrimidine-3-carboxamide] | 72.4 | 2.44 | 0.78
CN(Cc1cccc(C(F)(F)F)c1)C1CCN(C(=O)Cn2cc(NC(=O)c3cnn4cccnc34)c(-c3cc(Cl)ccc3OC(F)F)n2)CC1 [Example 128, N-[3-[5-chloro-2-(difluoromethoxy)phenyl]-1-[2-[4-[methyl-[[3-(trifluoromethyl)phenyl]methyl]amino]-1-piperidyl]-2-oxo-ethyl]pyrazol-4-yl]pyrazolo[1,5-a]pyrimidine-3-carboxamide] | 42.5 | 3.09 | 1.12
Cc1ccc(CN(C)C2CCN(C(=O)Cn3cc(NC(=O)c4cnn5cccnc45)c(-c4cc(Cl)ccc4OC(F)F)n3)CC2)c(C)c1 [Example 129, N-[3-[5-chloro-2-(difluoromethoxy)phenyl]-1-[2-[4-[(2,4-dimethylphenyl)methyl-methyl-amino]-1-piperidyl]-2-oxo-ethyl]pyrazol-4-yl]pyrazolo[1,5-a]pyrimidine-3-carboxamide] | 14.2 | 3.33 | 1.14
CN(Cc1ccc2ccccc2c1)C1CCN(C(=O)Cn2cc(NC(=O)c3cnn4cccnc34)c(-c3cc(Cl)ccc3OC(F)F)n2)CC1 [Example 130, N-[3-[5-chloro-2-(difluoromethoxy)phenyl]-1-[2-[4-[methyl(2-naphthylmethyl)amino]-1-piperidyl]-2-oxo-ethyl]pyrazol-4-yl]pyrazolo[1,5-a]pyrimidine-3-carboxamide] | 32.3 | 2.91 | 1.1

Results, then the compound that gave them:

EC50 [1] [nM] | Ki [2] [nM] | Ki [3] [nM] | SMILES
23.7 | 2.68 | 1.07 | CN(Cc1ccc(F)c(Br)c1)C1CCN(C(=O)Cn2cc(NC(=O)c3cnn4cccnc34)c(-c3cc(Cl)ccc3OC(F)F)n2)CC1 [Example 131, N-[1-[2-[4-[(3-bromo-4-fluoro-phenyl)methyl-methyl-amino]-1-piperidyl]-2-oxo-ethyl]-3-[5-chloro-2-(difluoromethoxy)phenyl]pyrazol-4-yl]pyrazolo[1,5-a]pyrimidine-3-carboxamide]
26.9 | 1.15 | 0.52 | O=C(Nc1cn(CC(=O)N2CCC(N3Cc4ccc(Cl)cc4C3)CC2)nc1-c1cc(Cl)ccc1OC(F)F)c1cnn2cccnc12 [Example 135, N-[3-[5-chloro-2-(difluoromethoxy)phenyl]-1-[2-[4-(5-chloroisoindolin-2-yl)-1-piperidyl]-2-oxo-ethyl]pyrazol-4-yl]pyrazolo[1,5-a]pyrimidine-3-carboxamide]
36.7 | 0.25 | 0.64 | CN(C)C1CCN(C(=O)Cn2cc(NC(=O)c3c(N)nn4cccnc34)c(-c3cc(Cl)ccc3OC(F)F)n2)C1 (stereo not drawn) [Example 136, 2-amino-N-[3-[5-chloro-2-(difluoromethoxy)phenyl]-1-[2-[3-(dimethylamino)pyrrolidin-1-yl]-2-oxo-ethyl]pyrazol-4-yl]pyrazolo[1,5-a]pyrimidine-3-carboxamide]
40.2 | 0.36 | 0.78 | CN(C)C1CCN(C(=O)Cn2cc(NC(=O)c3c(N)nn4cccnc34)c(-c3cc(Cl)ccc3OC(F)F)n2)CC1 [Example 139, 2-amino-N-[3-[5-chloro-2-(difluoromethoxy)phenyl]-1-[2-[4-(dimethylamino)-1-piperidyl]-2-oxo-ethyl]pyrazol-4-yl]pyrazolo[1,5-a]pyrimidine-3-carboxamide]
29.3 | 0.39 | 0.46 | CN(CCO)C1CCN(C(=O)Cn2cc(NC(=O)c3c(N)nn4cccnc34)c(-c3cc(Cl)ccc3OC(F)F)n2)CC1 [Example 140, 2-amino-N-[3-[5-chloro-2-(difluoromethoxy)phenyl]-1-[2-[4-[2-hydroxyethyl(methyl)amino]-1-piperidyl]-2-oxo-ethyl]pyrazol-4-yl]pyrazolo[1,5-a]pyrimidine-3-carboxamide]
15 | 0.59 | 0.68 | COCCN(C)C1CCN(C(=O)Cn2cc(NC(=O)c3c(N)nn4cccnc34)c(-c3cc(Cl)ccc3OC(F)F)n2)CC1 [Example 141, 2-amino-N-[3-[5-chloro-2-(difluoromethoxy)phenyl]-1-[2-[4-[2-methoxy-ethyl(methyl)amino]-1-piperidyl]-2-oxo-ethyl]pyrazol-4-yl]pyrazolo[1,5-a]pyrimidine-3-carboxamide]
36.3 | 0.38 | 1.65 | CC(=O)NCCCN1CCC(n2cc(NC(=O)c3cnn4cccnc34)c(-c3cc(Cl)ccc3OC(F)F)n2)CC1 [Example 142, Pyrazolo[1,5-a]pyrimidine-3-carboxylic acid [1-[1-(3-acetylaminopropyl)piperidin-4-yl]-3-(5-chloro-2-difluoromethoxyphenyl)-1H-pyrazol-4-yl]amide hydrochloride]
20.4 | 0.18 | 0.76 | Nc1nn2cccnc2c1C(=O)Nc1cn(C2CCN(CCCC(=O)N3CCCCC3)CC2)nc1-c1cc(Cl)ccc1OC(F)F [Example 143, 2-amino-N-[3-[5-chloro-2-(difluoromethoxy)phenyl]-1-[1-[4-oxo-4-(1-piperidyl)butyl]-4-piperidyl]pyrazol-4-yl]pyrazolo[1,5-a]pyrimidine-3-carboxamide]
14.8 | 0.16 | 0.57 | Nc1nn2cccnc2c1C(=O)Nc1cn(C2CCN(CCCNC(=O)c3ccccc3)CC2)nc1-c1cc(Cl)ccc1OC(F)F [Example 145, 2-amino-N-[1-[1-(3-benzamidopropyl)-4-piperidyl]-3-[5-chloro-2-(difluoromethoxy)phenyl]pyrazol-4-yl]pyrazolo[1,5-a]pyrimidine-3-carboxamide]
3.9 | 0.13 | 0.45 | Nc1nn2cccnc2c1C(=O)Nc1cn(C2CCN(CCCN3CCCC3=O)CC2)nc1-c1cc(Cl)ccc1OC(F)F [Example 146, 2-amino-N-[3-[5-chloro-2-(difluoromethoxy)phenyl]-1-[1-[3-(2-oxopyrrolidin-1-yl)propyl]-4-piperidyl]pyrazol-4-yl]pyrazolo[1,5-a]pyrimidine-3-carboxamide]
9.4 | 0.1 | 0.64 | CN(C)C(=O)CCCN1CCC(n2cc(NC(=O)c3c(N)nn4cccnc34)c(-c3cc(Cl)ccc3OC(F)F)n2)CC1 [Example 148, 2-amino-N-[3-[5-chloro-2-(difluoromethoxy)phenyl]-1-[1-[4-(dimethylamino)-4-oxo-butyl]-4-piperidyl]pyrazol-4-yl]pyrazolo[1,5-a]pyrimidine-3-carboxamide]
